From PubChem BioAssay AID1919016 (Molecular Pharmacology Branch, DTP, NCI, 2023)

System: NCI-H196 complex spheroid growth, percent test/control
Assay: Anticancer human tumor NCI-H196 cell line growth inhibition [AhR];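 also: seven days of drug exposure starting three days after plating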;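 as to viability, T/C: 100% = DMSO vehicle control wells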
Conditions: for IC50: curve of first compound; for viability, T/C: stronger effect = lower value
Procedure, shortened: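 Agents were dosed in half-log steps down from roughly clinical Cmax, or from 10 microM where Cmax was unknown, alone and with AhR antagonists. Read-out: percent test/control growth of tumor spheroids containing HUVEC and MSC stromal cells.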

For `Nc1ncn(C2CC(O)C(CO)S2)c(=O)n1` (stereo not given) + Cc1cncc(-c2nc(NCCc3c[nH]c4ccccc34)c3ncn(C(C)C)c3n2)c1, the IC50 (second compound 0.1 µM) was > 300 nM, the IC50 (second compound 0.316 µM) was > 300 nM and the IC50 (second compound 1 µM) was > 300 nM. For the same compound, the IC50 (second compound 3.16 µM) was > 300 nM, the IC50 (second compound 10 µM) was > 300 nM and the viability, T/C (second compound 0.1 µM, first compound 0.000949 µM) was 109%. For the same compound, the viability, T/C (second compound 0.1 µM, first compound 0.003 µM) was 112%, the viability, T/C (second compound 0.1 µM, first compound 0.00949 µM) was 109% and the viability, T/C (second compound 0.1 µM, first compound 0.03 µM) was 111%. The viability, T/C (second compound 0.1 µM, first compound 0.0949 µM) was 118%, the viability, T/C (second compound 0.1 µM, first compound 0.3 µM) was 116% and the viability, T/C (second compound 0.316 µM, first compound 0.000949 µM) was 101%. It also gave a viability, T/C (second compound 0.316 µM, first compound 0.003 µM) of 110%, a viability, T/C (second compound 0.316 µM, first compound 0.00949 µM) of 113% and a viability, T/C (second compound 0.316 µM, first compound 0.03 µM) of 112%. It also gave a viability, T/C (second compound 0.316 µM, first compound 0.0949 µM) of 115%, a viability, T/C (second compound 0.316 µM, first compound 0.3 µM) of 111% and a viability, T/C (second compound 1 µM, first compound 0.000949 µM) of 107%. The viability, T/C (second compound 1 µM, first compound 0.003 µM) was 110%, the viability, T/C (second compound 1 µM, first compound 0.00949 µM) was 108% and the viability, T/C (second compound 1 µM, first compound 0.03 µM) was 116%. The viability, T/C (second compound 1 µM, first compound 0.0949 µM) was 121%, the viability, T/C (second compound 1 µM, first compound 0.3 µM) was 123% and the viability, T/C (second compound 3.16 µM, first compound 0.000949 µM) was 118%. It also gave a viability, T/C (second compound 3.16 µM, first compound 0.003 µM) of 125%, a viability, T/C (second compound 3.16 µM, first compound 0.00949 µM) of 115% and a viability, T/C (second compound 3.16 µM, first compound 0.03 µM) of 114%. The viability, T/C (second compound 3.16 µM, first compound 0.0949 µM) was 116%, the viability, T/C (second compound 3.16 µM, first compound 0.3 µM) was 117% and the viability, T/C (second compound 10 µM, first compound 0.000949 µM) was 92.3%. For the same compound, the viability, T/C (second compound 10 µM, first compound 0.003 µM) was 92.9%, the viability, T/C (second compound 10 µM, first compound 0.00949 µM) was 101% and the viability, T/C (second compound 10 µM, first compound 0.03 µM) was 101%. For the same compound, the viability, T/C (second compound 10 µM, first compound 0.0949 µM) was 93.8% and the viability, T/C (second compound 10 µM, first compound 0.3 µM) was 106%.
